Assay results as given in US9181236B2, “2-spiro-substituted iminothiazines and their mono-and dioxides as bace inhibitors, compositions and their use” (Merck Sharp & Dohme Corp., priority 2011, dated 2015).

Columns and labels:
[1] = biological target: purified human autoBACE-2 (Homo sapiens (Human), UniProt Q9Y5Z0); experiment: BACE-2 Assay (BACE-HTRF assay); assay type: biochemical; conditions: Ki calculated from IC50 using the Cheng-Prusoff equation; read-out: BACE2 Ki
Procedure: Inhibitor IC50s at purified human autoBACE-2 are determined in a time-resolved endpoint proteolysis assay that measures hydrolysis of the QSY7-[…]-Eu-amide FRET peptide substrate (BACE-HTRF assay). […] DMSO is present at 5% final concentration in the assay. Following laser excitation of sample wells at 320 nm, the fluorescence signal at 620 nm is collected for 400 ms following a 50 μs delay on a RUBYstar HTRF plate reader (BMG Labtechnologies). Raw RFU data is normalized to maximum (1.0 nM BACE/DMSO) and minimum (no enzyme/DMSO) RFU values. […] The Ki values are calculated from the IC50 using the Cheng-Prusoff equation.

[2] = biological target: soluble human BACE1 catalytic domain (Homo sapiens (Human), UniProt P56817); experiment: BACE1 HTRF FRET Assay; assay type: biochemical; conditions: for Ki: Ki calculated from IC50 using the Cheng-Prusoff equation; for inhibition at 10 µM: read-out: BACE1 % Inh. at 10 μM; for inhibition at 1 µM: read-out: BACE1 % Inh. at 1 μM
Chain of soluble human BACE1 catalytic domain (P56817 75-416): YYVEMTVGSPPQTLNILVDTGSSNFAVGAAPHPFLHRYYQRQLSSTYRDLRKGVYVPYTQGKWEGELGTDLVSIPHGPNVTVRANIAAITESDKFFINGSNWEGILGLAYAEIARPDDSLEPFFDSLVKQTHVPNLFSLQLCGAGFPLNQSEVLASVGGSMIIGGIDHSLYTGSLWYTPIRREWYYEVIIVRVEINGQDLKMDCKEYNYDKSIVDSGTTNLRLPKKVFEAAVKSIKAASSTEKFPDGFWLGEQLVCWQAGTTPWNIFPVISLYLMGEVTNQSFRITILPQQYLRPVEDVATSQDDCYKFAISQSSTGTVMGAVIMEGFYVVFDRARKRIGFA
From the text: A homogeneous time-resolved FRET assay can be used to determine IC50 values for inhibitors of the soluble human BACE1 catalytic domain. This assay monitors the increase of 620 nm fluorescence that resulted from BACE1 cleavage of an APPswedish APP^swe mutant peptide FRET substrate (QSY7-[…]-Europium-amide). This substrate contains an N-terminal QSY7 moiety that serves as a quencher of the C-terminal Europium fluorophore (620 nm Em). In the absence of enzyme activity, 620 nm fluorescence is low in the assay and increased linearly over 3 hours in the presence of uninhibited BACE1 enzyme Inhibition of BACE1 cleavage of the QSY7-APP^swe-Eu substrate by inhibitors is manifested as a suppression of 620 nm fluorescence.
Reactions are initiated by addition of 10 μl of 600 nM QSY7-APP^swe-Eu substrate (200 nM final) to give a final reaction volume of 30 μl in a 384 well Nunc HTRF plate. The reactions are incubated at 30° C. for 1.5 hours. The 620 nm fluorescence is then read on a Rubystar HTRF plate reader (BMG Labtechnologies) using a 50 millisecond delay followed by a 400 millisecond acquisition time window Inhibitor IC50 values are derived from non-linear regression analysis of concentration response curves.

Chain of purified human autoBACE-2 (Q9Y5Z0 63-473 limits assumed): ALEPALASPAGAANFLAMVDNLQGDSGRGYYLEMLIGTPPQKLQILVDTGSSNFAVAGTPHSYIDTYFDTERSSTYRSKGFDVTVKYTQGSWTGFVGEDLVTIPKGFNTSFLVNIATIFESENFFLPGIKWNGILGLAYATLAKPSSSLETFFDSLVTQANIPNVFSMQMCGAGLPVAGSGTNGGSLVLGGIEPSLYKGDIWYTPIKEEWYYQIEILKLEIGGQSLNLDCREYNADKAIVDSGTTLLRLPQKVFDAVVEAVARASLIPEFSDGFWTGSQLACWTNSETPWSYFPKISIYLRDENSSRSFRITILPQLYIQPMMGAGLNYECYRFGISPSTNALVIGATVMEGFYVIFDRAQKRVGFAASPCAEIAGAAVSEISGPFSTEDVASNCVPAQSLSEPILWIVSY

Compound | Ki [1] | Ki [2] | inhibition at 10 µM [2] | inhibition at 1 µM [2]
C[C@@]1(c2cc(N)ccc2F)CS(=O)(=O)C2(CC2)C(=N)N1 | 1.86 µM | 4.9 µM | – | –
C[C@@]1(c2cc([N+](=O)[O-])ccc2F)CS(=O)(=O)C2(CCC2)C(=N)N1 | 3.21 µM | 3.63 µM | – | –
C[C@@]1(c2cc(N)ccc2F)CS(=O)(=O)C2(CCC2)C(=N)N1 | 3.97 µM | – | 54% | –
C[C@@]1(c2cc([N+](=O)[O-])ccc2F)CS(=O)(=O)C2(CCCC2)C(=N)N1 | 0.734 µM | – | – | 44%
C[C@@]1(c2cc(N)ccc2F)CS(=O)(=O)C2(CCCC2)C(=N)N1 | 1.42 µM | 4.13 µM | – | –
C[C@@]1(c2cc(N)ccc2F)CS(=O)(=O)C2(CCCCC2)C(=N)N1 | 2.8 µM | – | 49% | –
C[C@@]1(c2cc(N)ccc2F)CS(=O)(=O)C2(CCOCC2)C(=N)N1 | 3.58 µM | 7.02 µM | – | –
C[C@@]1(c2cc(Br)ccc2F)CS(=O)(=O)C2(CCCC2)C(=N)N1 | 0.935 µM | – | – | 42%
C[C@@]1(c2sc(Br)cc2Cl)CS(=O)(=O)C2(CCCC2)C(=N)N1 | 0.134 µM | 0.447 µM | – | –
C[C@@]1(c2sc(Br)cc2Cl)CS(=O)(=O)C2(CCCCC2)C(=N)N1 | 0.715 µM | 2.61 µM | – | –
C[C@@]1(c2sc(Br)cc2Cl)CS(=O)(=O)C2(CCOCC2)C(=N)N1 | 1.09 µM | 2.37 µM | – | –
C[C@@]1(c2sc(Br)cc2Cl)CS(=O)(=O)C2(CCC2)C(=N)N1 | 0.531 µM | 1.57 µM | – | –
C[C@@]1(c2cc([N+](=O)[O-])ccc2F)CS(=O)(=O)[C@]2(CCOC2)C(=N)N1 | 2.08 µM | 6.69 µM | – | –
C[C@@]1(c2cc(N)ccc2F)CS(=O)(=O)[C@]2(CCOC2)C(=N)N1 | 5.11 µM | – | 45% | –
C[C@@]1(c2cc([N+](=O)[O-])ccc2F)CS(=O)(=O)[C@@]2(CCOC2)C(=N)N1 | 2.67 µM | 6.12 µM | – | –
C[C@@]1(c2cc(N)ccc2F)CS(=O)(=O)[C@@]2(CCOC2)C(=N)N1 | 3.82 µM | – | 38% | –
C[C@@]1(c2sc(Br)cc2Cl)CS(=O)(=O)C2(CC2)C(=N)N1 | 0.465 µM | 0.912 µM | – | –
C[C@@]1(c2cc(NC(=O)c3ccc(Cl)cn3)ccc2F)CS(=O)(=O)C2(CC2)C(=N)N1 [Example 1] | 0.0004 µM | 0.0016 µM | – | –

Compound | Ki [1] | Ki [2] | inhibition at 10 µM [2] | inhibition at 1 µM [2]
COc1cnc(C(=O)Nc2ccc(F)c([C@]3(C)CS(=O)(=O)C4(CC4)C(=N)N3)c2)cn1 [Example 2] | < 0.02 µM | 0.0042 µM | – | –
C[C@@]1(c2cc(NC(=O)c3ccc(F)cn3)ccc2F)CS(=O)(=O)C2(CC2)C(=N)N1 [Example 3] | 0.0009 µM | 0.0055 µM | – | –
C[C@@]1(c2cc(NC(=O)c3ncc(F)cc3F)ccc2F)CS(=O)(=O)C2(CC2)C(=N)N1 [Example 4] | 0.0005 µM | 0.005 µM | – | –
COc1ccc(C(=O)Nc2ccc(F)c([C@]3(C)CS(=O)(=O)C4(CC4)C(=N)N3)c2)nc1 [Example 5] | 0.0019 µM | 0.0034 µM | – | –
C[C@@]1(c2cc(NC(=O)c3ccc(Cl)cn3)ccc2F)CS(=O)(=O)C2(CCC2)C(=N)N1 [Example 6] | 0.0019 µM | 0.008 µM | – | –
COc1cnc(C(=O)Nc2ccc(F)c([C@]3(C)CS(=O)(=O)C4(CCC4)C(=N)N3)c2)cn1 [Example 7] | < 0.05 µM | 0.0117 µM | – | –
C[C@@]1(c2cc(NC(=O)c3ccc(F)cn3)ccc2F)CS(=O)(=O)C2(CCC2)C(=N)N1 [Example 8] | 0.0042 µM | 0.0171 µM | – | –
C[C@@]1(c2cc(NC(=O)c3ncc(F)cc3F)ccc2F)CS(=O)(=O)C2(CCC2)C(=N)N1 [Example 9] | 0.0025 µM | 0.0126 µM | – | –
COc1ccc(C(=O)Nc2ccc(F)c([C@]3(C)CS(=O)(=O)C4(CCC4)C(=N)N3)c2)nc1 [Example 10] | < 0.02 µM | 0.0107 µM | – | –
C[C@@]1(c2cc(NC(=O)c3ccc(C#N)cn3)ccc2F)CS(=O)(=O)C2(CCC2)C(N)=N1 [Example 11] | < 0.02 µM | 0.0054 µM | – | –
C[C@@]1(c2cc(NC(=O)c3ccc(Cl)cn3)ccc2F)CS(=O)(=O)C2(CCCC2)C(=N)N1 [Example 12] | 0.0003 µM | 0.0013 µM | – | –
C[C@@]1(c2cc(NC(=O)c3ccc(F)cn3)ccc2F)CS(=O)(=O)C2(CCCC2)C(=N)N1 [Example 13] | 0.0003 µM | 0.0031 µM | – | –
C[C@@]1(c2cc(NC(=O)c3ccc(C(F)(F)F)cn3)ccc2F)CS(=O)(=O)C2(CCCC2)C(=N)N1 [Example 14] | 0.0021 µM | 0.0022 µM | – | –
COc1ccc(C(=O)Nc2ccc(F)c([C@]3(C)CS(=O)(=O)C4(CCCC4)C(=N)N3)c2)nc1 [Example 15] | 0.0006 µM | 0.0052 µM | – | –
C[C@@]1(c2cc(NC(=O)c3cnc(C(F)(F)F)cn3)ccc2F)CS(=O)(=O)C2(CCCC2)C(=N)N1 [Example 16] | < 0.02 µM | 0.013 µM | – | –
COc1cnc(C(=O)Nc2ccc(F)c([C@]3(C)CS(=O)(=O)C4(CCCC4)C(=N)N3)c2)cn1 [Example 17] | 0.0015 µM | 0.0036 µM | – | –
C[C@@]1(c2cc(NC(=O)c3ccc(Cl)cn3)ccc2F)CS(=O)(=O)C2(CCCCC2)C(=N)N1 [Example 24] | < 0.02 µM | – | – | –

Continued, values first:

Ki [1] | Ki [2] | inhibition at 10 µM [2] | inhibition at 1 µM [2] | Compound
0.0024 µM | 0.0093 µM | – | – | C[C@@]1(c2cc(NC(=O)c3ccc(F)cn3)ccc2F)CS(=O)(=O)C2(CCC(O)C2)C(=N)N1 (single isomer, unassigned) [Example 76a]
< 0.05 µM | 0.104 µM | – | – | C[C@@]1(c2cc(NC(=O)c3ccc(F)cn3)ccc2F)CS(=O)(=O)C2(CCC(O)C2)C(=N)N1 (single isomer, unassigned) [Example 76b]
– | 0.488 µM | – | – | C[C@@]1(c2cc(NC(=O)C3CCO3)ccc2F)CS(=O)(=O)[C@]2(CCOC2)C(=N)N1 (stereo partly drawn) [Example 81d]
– | 0.998 µM | – | – | CC1(C(=O)Nc2ccc(F)c([C@]3(C)CS(=O)(=O)[C@]4(CCOC4)C(=N)N3)c2)CC1 [Example 81e]
– | 2.08 µM | – | – | C[C@@]1(c2cc(NC(=O)C3CCC3)ccc2F)CS(=O)(=O)[C@]2(CCOC2)C(=N)N1 [Example 81f]
– | 2.96 µM | – | – | C[C@@]1(c2cc(NC(=O)CC3CC3)ccc2F)CS(=O)(=O)[C@]2(CCOC2)C(=N)N1 [Example 81g]
– | 0.108 µM | – | – | Cc1cnc(C(=O)Nc2ccc(F)c([C@]3(C)CS(=O)(=O)[C@]4(CCOC4)C(=N)N3)c2)cn1 [Example 81h]
– | 0.741 µM | – | – | C[C@@]1(c2cc(NC(=O)C3(C#N)CC3)ccc2F)CS(=O)(=O)[C@]2(CCOC2)C(=N)N1 [Example 81i]
– | 1.4 µM | – | – | C[C@@]1(c2cc(NC(=O)[C@H]3CCCO3)ccc2F)CS(=O)(=O)[C@]2(CCOC2)C(=N)N1 [Example 81j]
– | 0.026 µM | – | – | C[C@@]1(c2cc(NC(=O)c3ncc(F)cc3F)ccc2F)CS(=O)(=O)[C@]2(CCOC2)C(=N)N1 [Example 81k]
– | 0.949 µM | – | – | CCC(=O)Nc1ccc(F)c([C@]2(C)CS(=O)(=O)[C@]3(CCOC3)C(=N)N2)c1 [Example 81l]
– | 0.082 µM | – | – | C[C@@]1(c2cc(NC(=O)c3ccc(Cl)cc3)ccc2F)CS(=O)(=O)[C@]2(CCOC2)C(=N)N1 [Example 81m]
– | 0.639 µM | – | – | C[C@@]1(c2cc(NC(=O)C(F)F)ccc2F)CS(=O)(=O)[C@]2(CCOC2)C(=N)N1 [Example 81n]
– | 3.71 µM | – | – | C[C@@]1(c2cc(NC(=O)C3CCC3(F)F)ccc2F)CS(=O)(=O)[C@]2(CCOC2)C(=N)N1 (stereo partly drawn) [Example 81o]
– | 4.19 µM | – | – | CC1(C(=O)Nc2ccc(F)c([C@]3(C)CS(=O)(=O)[C@]4(CCOC4)C(=N)N3)c2)COC1 [Example 81p]
– | – | 15% | – | C[C@@]1(c2cc(NC(=O)C3CCOCC3)ccc2F)CS(=O)(=O)[C@]2(CCOC2)C(=N)N1 [Example 81q]
– | 3.17 µM | – | – | C[C@@]1(c2cc(NC(=O)CC(F)(F)F)ccc2F)CS(=O)(=O)[C@]2(CCOC2)C(=N)N1 [Example 81r]
– | 1.25 µM | – | – | C[C@@]1(c2cc(NC(=O)C3CC3(F)F)ccc2F)CS(=O)(=O)[C@]2(CCOC2)C(=N)N1 (stereo partly drawn) [Example 81s]
– | 1.95 µM | – | – | C[C@@]1(c2cc(NC(=O)c3cncs3)ccc2F)CS(=O)(=O)[C@]2(CCOC2)C(=N)N1 [Example 81t]
– | 0.433 µM | – | – | C[C@@]1(c2cc(NC(=O)c3cscn3)ccc2F)CS(=O)(=O)[C@]2(CCOC2)C(=N)N1 [Example 81u]
– | – | 58% | – | C[C@@]1(c2cc(NC(=O)c3ccc(F)cc3F)ccc2F)CS(=O)(=O)[C@]2(CCOC2)C(=N)N1 [Example 81v]
– | 0.429 µM | – | – | COCC(=O)Nc1ccc(F)c([C@]2(C)CS(=O)(=O)[C@]3(CCOC3)C(=N)N2)c1 [Example 81w]
– | 1.52 µM | – | – | CC(=O)Nc1ccc(F)c([C@]2(C)CS(=O)(=O)[C@]3(CCOC3)C(=N)N2)c1 [Example 81x]
– | 0.041 µM | – | – | Cc1ccc(C(=O)Nc2ccc(F)c([C@]3(C)CS(=O)(=O)[C@]4(CCOC4)C(=N)N3)c2)nc1 [Example 81y]
– | 3.17 µM | – | – | C[C@@]1(c2cc(NC(=O)c3ccc(S(C)(=O)=O)cn3)ccc2F)CS(=O)(=O)[C@]2(CCOC2)C(=N)N1 [Example 81z]
